System: PrASNase (glutaminase-free recombinant L-asparaginase)
Test: Nesslerization
Type: biochemical, Metapseudomonas resinovorans
Settings: pH 8.6, 37°C; 500 nM enzyme; 2-20 mM substrate

Km: 9.49 mM
SMILES: NC(=O)C[C@H](N)C(=O)O [L-asparagine]

From article doi:10.1101/2023.01.01.522448v1 (biorxiv, 2023)
